“Also recorded” adds a separate entry of the source. Where two headings read alike, the source gives them in different places. Positions of bridges follow the written chain, without caps; N, C: chain ends. Residues, ends and D or L forms follow the SMILES beside them.
How the values were obtained:
IAFp2 = type: cell-based, human; details: 3 h
In short: (§1)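 Cytotoxicity of N-Ac-CHAVC-NH2 and the control peptide N-Ac-CHGVC-NH2 was assessed by MTT reduction in human endothelial, fibroblast and cancer cell lines at concentrations up to 100 μM. Proliferation was measured separately by ^3H-thymidine incorporation over the same concentration range.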

PC-3 = type: cell-based, human; details: 3 h
In short: as §1

WI-38 = type: cell-based, human; details: 3 h
In short: as §1

MDA-MB231 = type: cell-based, human; details: 3 h
In short: as §1

HMVEC = type: cell-based, human; details: 3 h
In short: as §1

HUVEC = type: cell-based, human; details: 3 h
In short: as §1

N-cadherin = biological target: T1, N-cadherin (Gallus gallus, UniProt P10288); assay: Neurite outgrowth inhibition, rat neurons (Example 21); type: cell-based; details: 250 μg/mL; for inhibition at 250 µg/mL: read-out: % Inhibition of neurite outgrowth
T1 construct: expressed in transfected cells; host or cells: 3T3 fibroblasts (monolayer)
T1 sequence (P10288 165-912): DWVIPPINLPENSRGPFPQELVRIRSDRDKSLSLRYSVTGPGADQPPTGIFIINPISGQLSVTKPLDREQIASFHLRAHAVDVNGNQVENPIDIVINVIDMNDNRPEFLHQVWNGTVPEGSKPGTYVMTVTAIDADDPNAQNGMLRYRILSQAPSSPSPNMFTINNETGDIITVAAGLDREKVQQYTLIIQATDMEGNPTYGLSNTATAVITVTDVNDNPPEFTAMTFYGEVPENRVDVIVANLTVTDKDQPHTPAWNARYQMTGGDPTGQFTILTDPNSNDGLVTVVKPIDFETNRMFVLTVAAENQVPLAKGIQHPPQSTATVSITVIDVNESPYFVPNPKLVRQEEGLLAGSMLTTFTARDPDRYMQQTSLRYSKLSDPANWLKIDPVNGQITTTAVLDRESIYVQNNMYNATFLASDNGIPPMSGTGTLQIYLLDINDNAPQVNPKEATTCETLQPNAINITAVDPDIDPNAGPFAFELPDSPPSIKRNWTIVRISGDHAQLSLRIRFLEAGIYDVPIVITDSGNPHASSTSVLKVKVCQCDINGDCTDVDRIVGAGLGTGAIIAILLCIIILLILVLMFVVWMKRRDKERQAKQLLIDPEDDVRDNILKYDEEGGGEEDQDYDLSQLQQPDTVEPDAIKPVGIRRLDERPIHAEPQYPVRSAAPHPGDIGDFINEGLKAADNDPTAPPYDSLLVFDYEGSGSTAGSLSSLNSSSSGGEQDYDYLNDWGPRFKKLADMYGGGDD

chick N-cadherin = biological target: T2, chick N-cadherin (Gallus gallus, UniProt P10288); assay: Neurite outgrowth of rat cerebellar neurons on N-cadherin expressing 3T3 monolayers (Example 15); type: cell-based; details: for inhibitory activity on N-cadherin dependent neurite outgrowth, structure/activity statements: Tables 8 and 9; for effect on neurite outgrowth over N-cadherin expressing cells (in words): 500 μg/mL
T2 construct: expressed in transfected cells; host or cells: 3T3 fibroblasts (monolayer); rat post-natal day 2-3 cerebellar neurons plated on top
T2 sequence (P10288 165-912): T1 sequence (P10288 165-912)

[1] = Cytotoxicity, MTT assay, MDA-MB231; type: cell-based, human; details: human, MTT assay, read-out: MDA-MB231 Cytotox (IC50)
In short: as §1

Melanoma ME115 cells = assay: Disruption of melanoma cell adhesion, pan-cadherin staining; type: cell-based, human; details: 500 μg/mL, 48 hours
Experimental: Melanoma ME115 cells (kindly provided by Meenhard Herlyn, Wistar Institute, Philadelphia, Pa.) were plated on glass coverslips and cultured for 24 hours in 50% keratinocyte growth medium (Clonetics, San Diego, Calif.) and 50% L15. Fresh medium containing the cyclic peptides (final concentration 500 μg/mL media) N—Ac-CHAVC-NH2 (SEQ ID NO:10) or N—Ac-CHGVC-NH2 (SEQ ID NO:11) was then added. Following 24 hours of culture in the presence of the peptides, the medium was removed and fresh medium containing the peptides was added. The cells were fixed 24 hours later with cold methanol and stored in phosphate buffered saline (PBS).
Coverslips were blocked for 1 hour in 3% ovalbumin/PBS and incubated for a further 1 hour in the presence of rabbit pan-cadherin antibody (Sigma Chemical Co., St. Louis, Mo.) diluted 1:500. Primary and secondary antibodies were diluted in PBS containing 6% normal goat serum. Following incubation in the primary antibody, coverslips were washed 3 times for 5 minutes each in PBS and incubated for 1 hour in goat anti-rabbit immunoglobulin G conjugated to fluorescein (Kiekegard and Perry, South San Francisco, Calif.) diluted 1:100. Following a further wash in PBS (3×5 minutes) coverslips were mounted in Vectashield (Vector Labs, Burlingame, Calif.) and viewed with a Zeiss infinity corrected microscope.

Structure (SMILES) | IC50 (IAFp2) | IC50 (PC-3) | IC50 (WI-38) | IC50 (MDA-MB231) | IC50 (HMVEC) | IC50 (HUVEC) | inhibition at 250 µg/mL (N-cadherin) | inhibition of N-cadherin dependent neurite outgrowth (in words) (chick N-cadherin; 250 μg/mL) | activity on N-cadherin dependent neurite outgrowth (in words) (chick N-cadherin; 125 micrograms/mL or below) | inhibitory activity on N-cadherin dependent neurite outgrowth, structure/activity statements (chick N-cadherin) | IC50 ([1]; MDA-MB231 breast cancer cell line) | cadherin staining of ME115 cells (Melanoma ME115 cells) | melanoma cell adhesion (Melanoma ME115 cells) | inhibition of neurite outgrowth (in words) (N-cadherin) | effect on neurite outgrowth over N-cadherin expressing cells (in words) (chick N-cadherin) | effect on the N-cadherin response (chick N-cadherin; concentrations up to 62 μg/ml) | IC50 ([1]; MDA-MB231 cells (human breast cancer cell line))
CC[C@H](C)[C@@H]1NC(=O)[C@H](CC(=O)O)NC(=O)[C@H](C(C)C)NC(=O)[C@H](C)NC(=O)[C@H](Cc2c[nH]cn2)NC(=O)[C@H](C)NC(=O)[C@@H](NC(C)=O)CSSC[C@@H](C(N)=O)NC1=O (Ac-CAHAVDIC-NH2; disulfide 1-8) | > 100 µM | > 100 µM | > 100 µM | > 100 µM | > 100 µM | > 100 µM | 82% | potent inhibitors of neurite outgrowth | lost activity | reduced, but did not eliminate, the activity | – | – | – | – | – | – | –
CC(=O)N[C@H]1CSSC[C@@H](C(N)=O)NC(=O)[C@H](CC(=O)O)NC(=O)[C@H](C(C)C)NC(=O)[C@H](C)NC(=O)[C@H](Cc2c[nH]cn2)NC(=O)[C@H](C)NC1=O [N—Ac—CAHAVDC—NH2, N-Ac-Cys-Ala-His-Ala-Val-Asp-Cys-NH2] (Ac-CAHAVDC-NH2; disulfide 1-7) | > 100 µM | > 100 µM | > 100 µM | > 100 µM | > 100 µM | > 100 µM | – | – | – | completely eliminated inhibitory activity | – | – | – | – | – | – | –
CC(=O)N[C@H]1CSSC[C@@H](C(N)=O)NC(=O)[C@H](C(C)C)NC(=O)[C@H](C)NC(=O)[C@H](Cc2c[nH]cn2)NC1=O [N—Ac—CHAVC—NH2, N-Ac-Cys-His-Ala-Val-Cys-NH2] | – | – | – | – | – | – | 65% | – | – | – | > 100 µM | cadherin is localized in intracellular vesicles; also recorded: absence of cell membrane staining and the appearance of bright intracellular vesicular staining | disrupts melanoma cell adhesion | significantly inhibited neurite outgrowth | inhibition of neurite outgrowth | no significant effect on the N-cadherin response | –
CC(=O)N[C@H]1CSSC[C@@H](C(N)=O)NC(=O)[C@H](C(C)C)NC(=O)CNC(=O)[C@H](Cc2c[nH]cn2)NC1=O [N—Ac—CHGVC—NH2, reference compound] | – | – | – | – | – | – | 0% | – | – | – | – | displayed cadherin staining all over the cell membrane | – | – | had no effect on neurite outgrowth | – | > 100 µM
